# Data published in US8759368B2, “Benzoic acid, benzoic acid derivatives and heteroaryl carboxylic acid conjugates of hydrocodone, prodrugs, methods of making and use thereof” (KemPharma, Inc., priority 2009, dated 2014).
# How the values were obtained:
# [1] = Chemical stability: hydrolysis in 5% NaHCO3 for one hour; type: physicochemical; conditions: 5% NaHCO3, one hour; for %-release in 5% NaHCO3, ambient: ambient temperature (~20° C.); for %-release in 5% NaHCO3, 100° C.: oil bath at 100° C.
# [2] = Chemical stability: hydrolysis of conjugate in water for one hour; type: physicochemical; conditions: for water, ambient (amount of conjugate hydrolyzed): ambient temperature (about 20° C.); for water, 100° C. (amount of conjugate hydrolyzed): oil bath at 100° C.
# Protocol: Exemplary conjugates of hydrocodone of the present technology and control test conjugates not of the present technology were tested for chemical stability under conditions similar to what a potential drug abuser may use to “extract” the active portion of the molecule, for example dissolved in water, hydrochloric acid or sodium bicarbonate either at ambient temperature or 100° C.
# [3] = Chemical stability: hydrolysis to hydrocodone in 1 N HCl for 1 hour; conditions: for %-release in 1N HCl, ambient: ambient temperature (~20° C.); for %-release in 1N HCl, 100° C.: oil bath at 100° C.
# [4] = Water solubility / hydrophobicity of conjugates (feasibility of intranasal or intravenous dosing); conditions: for hydrophobic character (in words): do not dissolve in a practical amount of water for intravenous dosing at oral equivalent doses; for water solubility (in words): mixed with water, basis for intranasal or intravenous dosing in rats
# [5] = Oral PK in rats, plasma hydrocodone, hydromorphone and intact conjugate by LC-MS/MS
# [6] = Oral PK in dogs, plasma intact Bz-HC, hydrocodone and hydromorphone by LC-MS/MS; conditions: equivalent to 2 mg/kg freebase hydrocodone, FIG. 17
# [7] = Intranasal PK in rats, plasma hydrocodone and hydromorphone by LC-MS/MS; conditions: equivalent to 2 mg/kg hydrocodone freebase
# [8] = equivalent to 2 mg/kg freebase hydrocodone, FIG. 14
# [9] = equivalent to 2 mg/kg hydrocodone freebase, FIG. 11
# [10] = equivalent to 2 mg/kg hydrocodone freebase, FIG. 12
Compound,"%-release in 5% NaHCO3, ambient [1]","%-release in 5% NaHCO3, 100° C. [1]","%-release in 1N HCl, ambient [3]","%-release in 1N HCl, 100° C. [3]",hydrophobic character (in words) [4],water solubility (in words) [4],also measured
COc1ccc2c3c1O[C@H]1C(OC(=O)c4ccc(O)cc4)=CC[C@H]4[C@@H](C2)N(C)CC[C@]314 [Compound 4-OH-Bz-HC],1%,23%,0%,30%,hydrophobic,–,"water, ambient (amount of conjugate hydrolyzed) [2]: 0%; water, 100° C. (amount of conjugate hydrolyzed) [2]: 0%"
COc1ccc2c3c1OC1C(OC(=O)c4cccc(O)c4)=CCC4C(C2)N(C)CCC314 (stereo not shown) [Compound 3-OH-Bz-HC],–,–,–,–,hydrophobic,poorly water soluble,–
"COc1ccc2c3c1OC1C(OC(=O)COCC(=O)O)=CC[C@H]4[C@@H](C2)N(C)CC[C@]314 (stereo partly shown) [Diglycolate-HC, reference compound]",–,–,–,–,–,water soluble,–
"COc1ccc2c3c1OC1C(OC(=O)c4ccccc4)=CCC4C(C2)N(C)CCC314 (stereo not shown) [Bz-HC, benzoate-hydrocodone]",–,–,–,–,hydrophobic,poor water solubility,"Cmax values of hydrocodone and hydromorphone versus dose ([5]; 0.25 to 4.00 mg/kg, particularly for hydromorphone): more variable; maximum plasma concentrations of hydromorphone versus dose ([5]; doses above 2.00 mg/kg of Bz-HC): did not significantly change; exposures (AUC) to hydrocodone and hydromorphone versus dose ([5]; doses of Bz-HC between 0.25 and 4.00 mg/kg, FIGS. 19 and 20): fairly linear; oral PK curve for released hydrocodone compared with YYFFI-HC ([5]; equivalent to 2 mg/kg freebase hydrocodone, FIG. 5): somewhat similar; AUC for intact Bz-HC as % of the AUC value for hydrocodone [5, 8]: approximately 10%; AUC for intact Bz-HC as % of the AUC value for hydromorphone [5, 8]: ~3%; AUC value for intact Bz-HC as % of the AUC value for hydrocodone [6]: approximately 10%; hydrocodone plasma concentrations compared with Adipate-HC ([7]; FIG. 7): significantly lower; plasma concentration of hydromorphone compared with Adipate-HC ([7]; FIG. 8): very low"
"COc1ccc2c3c1O[C@H]1C(OC(=O)c4ccccc4O)=CC[C@H]4[C@@H](C2)N(C)CC[C@]314.Cl [Compound 2-OH-Bz-HC, Salicylic Acid Ester of Hydrocodone Hydrochloride Salt]",–,–,–,–,hydrophobic,–,–
"Tyr-Tyr-Phe-Phe-Ile-Hydrocodone [YYFFI-HC, reference compound]",0%,70%,–,–,–,–,–
COc1ccc2c3c1OC1C(OC(=O)c4ccc5c(c4)OCO5)=CC[C@H]4[C@@H](C2)N(C)CC[C@]314 (stereo partly shown) [Piperonylate-HC],–,–,–,–,hydrophobic,poorly water soluble,–
"COc1ccc2c3c1OC1C(OC(=O)c4cccnc4)=CCC4C(C2)N(C)CCC314 (stereo not shown) [Nicotinate-HC, nicotinate-hydrocodone]",–,–,–,–,hydrophobic,–,"hydrocodone and hydromorphone plasma concentrations compared with unconjugated Hydrocodone.BT ([5]; equivalent to 2 mg/kg hydrocodone freebase, FIGS. 9 and 10): below the respective concentrations; AUC values of hydrocodone and hydromorphone compared with Hydrocodone.BT ([5]; same dose based on hydrocodone freebase): within the range of bioequivalence"
"COc1ccc2c3c1OC1C(OC(=O)CCCCC(=O)O)=CC[C@H]4[C@@H](C2)N(C)CC[C@]314 (stereo partly shown) [Adipate-HC, reference compound]",3%,100%,13%,100%,–,water soluble,"AUC for hydromorphone released from Adipate-HC, higher than for Bz-HC (sentence on hydrocodone plasma concentrations) ([7]; FIG. 7): approximately 280%; Cmax for hydromorphone released from Adipate-HC, higher than for Bz-HC (sentence on hydrocodone plasma concentrations) ([7]; FIG. 7): ~60%; AUC for hydromorphone released from Adipate-HC, higher than for Bz-HC ([7]; FIG. 8): approximately 750%; Cmax for hydromorphone released from Adipate-HC, higher than for Bz-HC ([7]; FIG. 8): ~660%"
COc1ccc(C(=O)OC2=CC[C@H]3[C@H]4Cc5ccc(OC)c6c5[C@@]3(CCN4C)C2O6)cc1O (stereo partly shown) [3-OH-4-MeO-Bz-HC],0%,36%,0%,35%,hydrophobic,poorly water soluble,–
COc1ccc(C(=O)OC2=CC[C@H]3[C@H]4Cc5ccc(OC)c6c5[C@@]3(CCN4C)C2O6)cc1 (stereo partly shown) [Compound 4-MeO-Bz-HC],–,–,–,–,hydrophobic,–,"water, ambient (amount of conjugate hydrolyzed) [2]: 0%; water, 100° C. (amount of conjugate hydrolyzed) [2]: 0%"
"COc1ccc2c3c1OC1C(OC(=O)c4ccccc4N)=CCC4C(C2)N(C)CCC314.Cl.Cl (stereo not shown) [Compound 2-ABz-HC, 2-Aminobenzoic Acid Ester of Hydrocodone Dihydrochloride Salt]",–,–,0%,16%,–,–,"hydrocodone AUC, lower than for Hydrocodone.BT [5, 9]: approximately 35%; hydrocodone Cmax, lower than for Hydrocodone.BT [5, 9]: ~60%; hydromorphone AUC, lower than for Hydrocodone.BT [5, 10]: approximately 25%; hydromorphone Cmax, lower than for Hydrocodone.BT [5, 10]: ~50%; water, ambient (amount of conjugate hydrolyzed) [2]: 0%; water, 100° C. (amount of conjugate hydrolyzed) [2]: 0%"
